Measurements: patent US12521393B2, “Cytotoxicity targeting chimeras for CCR2-expressing cells” (GLAXOSMITHKLINE INTELLECTUAL PROPERTY DEVELOPMENT LIMITED, priority 2021, dated 2026)
Counter-ions that a name gives are not always drawn.

Test system: endogenous target monocytes in human PBMC
Assay: PBMC ex vivo monocyte depletion flow cytometry assay (Example 200)
Assay type: cell-based
Conditions: with anti-cotinine antibody (SEQ ID NO: 11/12), 18-24 hours, EC50 in molar, read-out: Ex Vivo Depletion Assay pEC50 (converted)
Procedure, shortened: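 Monocyte depletion is reported as pEC50, averaged or given individually across runs, and read by flow cytometry staining CD45, CD14 and CD4 with a viability dye. Compounds, diluted four-fold over 11 points from 1 mM DMSO stocks, were combined with 30 μg/mL Fc-enhanced anti-cotinine antibody and human PBMC, then incubated 18-24 h at 37° C.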

Compound: CC(C)N(C)[C@@H]1CC[C@H](N2CC[C@H](Nc3ncnc4ccc(C(F)(F)F)cc34)C2=O)[C@H](NC(=O)c2cnn(C3CCN(CCOCCOCCOCCNC(=O)[C@H]4CC(=O)N(C)[C@@H]4c4cccnc4)CC3)c2)C1 [Example 129, N-((1R,2S,5R)-5-(Isopropyl(methyl)amino)-2-((S)-2-oxo-3-((6-(trifluoromethyl)quinazolin-4-yl)amino)pyrrolidin-1-yl)cyclohexyl)-1-(1-(1-((2S,3S)-1-methyl-5-oxo-2-(pyridin-3-yl)pyrrolidin-3-yl)-1-oxo-5,8,11-trioxa-2-azatridecan-13-yl)piperidin-4-yl)-1H-pyrazole-4-carboxamide]
- EC50: 1.26 nM

Compound: CC(C)N(C)[C@@H]1CC[C@H](N2CC[C@H](Nc3ncnc4ccc(C(F)(F)F)cc34)C2=O)[C@H](NC(=O)C2CCC(N3CC(C(=O)NCCOCCOCCNC(=O)[C@H]4CC(=O)N(C)[C@@H]4c4cccnc4)C3)CC2)C1 (stereo partly drawn) [Example 131, (2S,3S)-N-(2-(2-(2-(1-(4-(((1R,2S,5R)-5-(Isopropyl(methyl)amino)-2-((S)-2-oxo-3-((6-(trifluoromethyl)quinazolin-4-yl)amino)pyrrolidin-1-yl)cyclohexyl)carbamoyl)cyclohexyl)azetidine-3-carboxamido)ethoxy)ethoxy)ethyl)-1-methyl-5-oxo-2-(pyridin-3-yl)pyrrolidine-3-carboxamide]
- EC50: 0.501 nM

Compound: CC(C)N(C)[C@@H]1CC[C@H](N2CC[C@H](Nc3ncnc4ccc(C(F)(F)F)cc34)C2=O)[C@H](NC(=O)[C@H]2CC[C@@H](N3CCC(C(=O)NCCOCCOCCNC(=O)[C@H]4CC(=O)N(C)[C@@H]4c4cccnc4)C(F)(F)C3)CC2)C1 (stereo partly drawn) [Example 132, 3,3-Difluoro-1-((1S,4s)-4-(((1R,2S,5R)-5-(isopropyl(methyl)amino)-2-((S)-2-oxo-3-((6-(trifluoromethyl)quinazolin-4-yl)amino)pyrrolidin-1-yl)cyclohexyl)carbamoyl)cyclohexyl)-N-(2-(2-(2-((2S,3S)-1-methyl-5-oxo-2-(pyridin-3-yl)pyrrolidine-3-carboxamido)ethoxy)ethoxy)ethyl)piperidine-4-carboxamide]
- EC50: 0.631 nM

Compound: CC(C)N(C)[C@@H]1CC[C@H](N2CC[C@H](Nc3ncnc4ccc(C(F)(F)F)cc34)C2=O)[C@H](NC(=O)c2ccc([C@H]3CC[C@@H](C(=O)NCCOCCOCCNC(=O)[C@H]4CC(=O)N(C)[C@@H]4c4cccnc4)CC3)cc2)C1 [Example 133, (2S,3S)-N-(2-(2-(2-((1S,4s)-4-(4-(((1R,2S,5R)-5-(Isopropyl(methyl)amino)-2-((S)-2-oxo-3-((6-(trifluoromethyl)quinazolin-4-yl)amino)pyrrolidin-1-yl)cyclohexyl)carbamoyl)phenyl)cyclohexane-1-carboxamido)ethoxy)ethoxy)ethyl)-1-methyl-5-oxo-2-(pyridin-3-yl)pyrrolidine-3-carboxamide]
- EC50: 1.26 nM

Compound: CC(C)N(C)[C@@H]1CC[C@H](N2CC[C@H](Nc3ncnc4ccc(C(F)(F)F)cc34)C2=O)[C@H](NC(=O)[C@H]2CC[C@@H](N3CCC(C(=O)NCCOCCOCCNC(=O)[C@H]4CC(=O)N(C)[C@@H]4c4cccnc4)CC3)CC2)C1 [Example 134, 1-((1S,4s)-4-(((1R,2S,5R)-5-(Isopropyl(methyl)amino)-2-((S)-2-oxo-3-((6-(trifluoromethyl)quinazolin-4-yl)amino)pyrrolidin-1-yl)cyclohexyl)carbamoyl)cyclohexyl)-N-(2-(2-(2-((2S,3S)-1-methyl-5-oxo-2-(pyridin-3-yl)pyrrolidine-3-carboxamido)ethoxy)ethoxy)ethyl)piperidine-4-carboxamide, 3Formic acid salt]
- EC50: 0.126 nM

Compound: CC(C)N(C)[C@@H]1CC[C@H](N2CC[C@H](Nc3ncnc4ccc(C(F)(F)F)cc34)C2=O)[C@H](NC(=O)[C@H]2CC[C@H](N3CCC(C(=O)NCCOCCOCCNC(=O)[C@H]4CC(=O)N(C)[C@@H]4c4cccnc4)CC3)CC2)C1 [Example 135, 1-((1R,4r)-4-(((1R,2S,5R)-5-(Isopropyl(methyl)amino)-2-((S)-2-oxo-3-((6-(trifluoromethyl)quinazolin-4-yl)amino)pyrrolidin-1-yl)cyclohexyl)carbamoyl)cyclohexyl)-N-(2-(2-(2-((2S,3S)-1-methyl-5-oxo-2-(pyridin-3-yl)pyrrolidine-3-carboxamido)ethoxy)ethoxy)ethyl)piperidine-4-carboxamide 3Formic acid salt]
- EC50: 1.58 nM

Compound: CC(C)N(C)[C@@H]1CC[C@H](N2CC[C@H](Nc3ncnc4ccc(C(F)(F)F)cc34)C2=O)[C@H](NC(=O)[C@H]2CC[C@H](c3ccc(C(=O)NCCOCCOCCNC(=O)[C@H]4CC(=O)N(C)[C@@H]4c4cccnc4)cn3)CC2)C1 [Example 139, 6-((1R,4r)-4-(((1R,2S,5R)-5-(Isopropyl(methyl)amino)-2-((S)-2-oxo-3-((6-(trifluoromethyl)quinazolin-4-yl)amino)pyrrolidin-1-yl)cyclohexyl)carbamoyl)cyclohexyl)-N-(2-(2-(2-((2S,3S)-1-methyl-5-oxo-2-(pyridin-3-yl)pyrrolidine-3-carboxamido)ethoxy)ethoxy)ethyl)nicotinamide]
- EC50: 5.01 nM

Compound: CC(C)N(C)[C@@H]1CC[C@H](N2CC[C@H](Nc3ncnc4ccc(C(F)(F)F)cc34)C2=O)[C@H](NC(=O)[C@H]2CC[C@H](c3ccc(C(=O)NCCOCCOCCNC(=O)[C@H]4CC(=O)N(C)[C@@H]4c4cccnc4)nc3)CC2)C1 [Example 141, 5-((1R,4r)-4-(((1R,2S,5R)-5-(Isopropyl(methyl)amino)-2-((S)-2-oxo-3-((6-(trifluoromethyl)qinazolin-4-yl)amino)pyrrolidin-1-yl)cyclohexyl)carbamoyl)cyclohexyl)-N-(2-(2-(2-((2S,3S)-1-methyl-5-oxo-2-(pyridin-3-yl)pyrrolidine-3-carboxamido)ethoxy)ethoxy)ethyl)picolinamide]
- EC50: 6.31 nM

Compound: CC(C)N(C)[C@@H]1CC[C@H](N2CC[C@H](Nc3ncnc4ccc(C(F)(F)F)cc34)C2=O)[C@H](NC(=O)[C@H]2CC[C@@H](N3CCN(CCCCCCCCNC(=O)[C@H]4CC(=O)N(C)[C@@H]4c4cccnc4)CC3)CC2)C1 [Example 145, (2S,3S)-N-(8-(4-((1S,4s)-4-(((1R,2S,5R)-5-(Isopropyl(methyl)amino)-2-((S)-2-oxo-3-((6-(trifluoromethyl)quinazolin-4-yl)amino)pyrrolidin-1-yl)cyclohexyl)carbamoyl)cyclohexyl)piperazin-1-yl)octyl)-1-methyl-5-oxo-2-(pyridin-3-yl)pyrrolidine-3-carboxamide]
- EC50: 1.26 nM

Compound: CC(C)N(C)[C@@H]1CC[C@H](N2CC[C@H](Nc3ncnc4ccc(C(F)(F)F)cc34)C2=O)[C@H](NC(=O)COCCCCCCCCCOCCCCCCCNC(=O)[C@H]2CC(=O)N(C)[C@@H]2c2cccnc2)C1 [Example 153, (2S,3S)-N-(7-((9-(2-(((1R,2S,5R)-5-(Isopropyl(methyl)amino)-2-((S)-2-oxo-3-((6-(trifluoromethyl)quinazolin-4-yl)amino)pyrrolidin-1-yl)cyclohexyl)amino)-2-oxoethoxy)nonyl)oxy)heptyl)-1-methyl-5-oxo-2-(pyridin-3-yl)pyrrolidine-3-carboxamide]
- EC50: 0.631 nM

Compound: CC(C)N(C)[C@@H]1CC[C@H](N2CC[C@H](Nc3ncnc4ccc(C(F)(F)F)cc34)C2=O)[C@H](NC(=O)c2cnn(C3CCN(C(=O)CCCCCCCCCCNC(=O)[C@H]4CC(=O)N(C)[C@@H]4c4cccnc4)CC3)c2)C1 [Example 156, N-((1R,2S,5R)-5-(Isopropyl(methyl)amino)-2-((S)-2-oxo-3-((6-(trifluoromethyl)quinazolin-4-yl)amino)pyrrolidin-1-yl)cyclohexyl)-1-(1-(11-((2S,3S)-1-methyl-5-oxo-2-(pyridin-3-yl)pyrrolidine-3-carboxamido)undecanoyl)piperidin-4-yl)-1H-pyrazole-4-carboxamide]
- EC50: 0.794 nM

Compound: CC(C)N(C)[C@@H]1CC[C@H](N2CC[C@H](Nc3ncnc4ccc(C(F)(F)F)cc34)C2=O)[C@H](NC(=O)C2CC=C(c3ccc(OCCCCCCNC(=O)[C@H]4CC(=O)N(C)[C@@H]4c4cccnc4)cc3)CC2)C1 (stereo partly drawn) [Example 158, (2S,3S)-N-(6-((4′-(((1R,2S,5R)-5-(Isopropyl(methyl)amino)-2-((S)-2-oxo-3-((6-(trifluoromethyl)quinazolin-4-yl)amino)pyrrolidin-1-yl)cyclohexyl)carbamoyl)-2′,3′,4′,5′-tetrahydro-[1,1′-biphenyl]-4-yl)oxy)hexyl)-1-methyl-5-oxo-2-(pyridin-3-yl)pyrrolidine-3-carboxamide]
- EC50: 0.501 nM

Compound: CC(C)N(C)[C@@H]1CC[C@H](N2CC[C@H](Nc3ncnc4ccc(C(F)(F)F)cc34)C2=O)[C@H](NC(=O)c2ccnc(CCCOCCOCCOCCOCCNC(=O)[C@H]3CC(=O)N(C)[C@@H]3c3cccnc3)c2)C1 [Example 160, N-((1R,2S,5R)-5-(Isopropyl(methyl)amino)-2-((S)-2-oxo-3-((6-(trifluoromethyl)quinazolin-4-yl)amino)pyrrolidin-1-yl)cyclohexyl)-2-(1-((2S,3S)-1-methyl-5-oxo-2-(pyridin-3-yl)pyrrolidin-3-yl)-1-oxo-5,8,11,14-tetraoxa-2-azaheptadecan-17-yl)isonicotinamide, 3Formic acid salt]
- EC50: 31.6 nM

Compound: CC(C)N(C)[C@@H]1CC[C@H](N2CC[C@H](Nc3ncnc4ccc(C(F)(F)F)cc34)C2=O)[C@H](NC(=O)CCCCCCCCC(=O)NCCCCCCCCCCNC(=O)[C@H]2CC(=O)N(C)[C@@H]2c2cccnc2)C1 [Example 165, N^1-((1R,2S,5R)-5-(isopropyl(methyl)amino)-2-((S)-2-oxo-3-((6-(trifluoromethyl)quinazolin-4-yl)amino)pyrrolidin-1-yl)cyclohexyl)-N^10-(10-((2S,3S)-1-methyl-5-oxo-2-(pyridin-3-yl)pyrrolidine-3-carboxamido)decyl)decanediamide]
- EC50: 0.631 nM
